From ChEMBL document CHEMBL1135090, “Non-peptide alpha(v)beta(3) antagonists. Part 3: identification of potent RGD mimetics incorporating novel beta-amino acids as aspartic acid replacements” (Bioorg Med Chem Lett, 2002)

How the values were obtained:
Integrin alpha-V/beta-3 = Integrin alpha-V/beta-3 (Homo sapiens, UniProt P05106+P06756); experiment: Inhibition of high affinity radioligand binding to human alphaV-beta3 integrin; assay type: protein-complex assay
[1] = target: T1, Integrin alpha-IIb/beta-3 (Homo sapiens) (UniProt P05106+P08514); experiment: Inhibition of ADP-stimulated alphaIIb-beta3 integrin mediated human platelet aggregation at 10 uM
[2] = Partition coefficient (logP); assay type: physicochemical; settings: octanol/water
[3] = target: T1, Integrin alpha-IIb/beta-3 (Homo sapiens); experiment: Inhibition of ADP-stimulated alphaIIb-beta3 integrin mediated human platelet aggregation at 11 uM
[4] = target: T1, Integrin alpha-IIb/beta-3 (Homo sapiens); experiment: Inhibition of ADP-stimulated alphaIIb-beta3 integrin mediated human platelet aggregation at 5.7 uM
[5] = Compound was tested for plasma clearance on administered orally as aqueous solutions at 1 mpk and by iv at 0.2 mpk; assay type: ADME, organism-based; settings: 0.2 mg/kg
[6] = Bioavailability (dose 1 mg/kg p.o. and 0.2 mg/kg i.v.); assay type: ADME, organism-based; settings: eutheria, in vivo, po
[7] = target: T1, Integrin alpha-IIb/beta-3 (Homo sapiens); experiment: Inhibition of ADP-stimulated alphaIIb-beta3 integrin mediated human platelet aggregation at 776 uM

Integrin alpha-V/beta-3, sequence (P05106 27-788 limits assumed): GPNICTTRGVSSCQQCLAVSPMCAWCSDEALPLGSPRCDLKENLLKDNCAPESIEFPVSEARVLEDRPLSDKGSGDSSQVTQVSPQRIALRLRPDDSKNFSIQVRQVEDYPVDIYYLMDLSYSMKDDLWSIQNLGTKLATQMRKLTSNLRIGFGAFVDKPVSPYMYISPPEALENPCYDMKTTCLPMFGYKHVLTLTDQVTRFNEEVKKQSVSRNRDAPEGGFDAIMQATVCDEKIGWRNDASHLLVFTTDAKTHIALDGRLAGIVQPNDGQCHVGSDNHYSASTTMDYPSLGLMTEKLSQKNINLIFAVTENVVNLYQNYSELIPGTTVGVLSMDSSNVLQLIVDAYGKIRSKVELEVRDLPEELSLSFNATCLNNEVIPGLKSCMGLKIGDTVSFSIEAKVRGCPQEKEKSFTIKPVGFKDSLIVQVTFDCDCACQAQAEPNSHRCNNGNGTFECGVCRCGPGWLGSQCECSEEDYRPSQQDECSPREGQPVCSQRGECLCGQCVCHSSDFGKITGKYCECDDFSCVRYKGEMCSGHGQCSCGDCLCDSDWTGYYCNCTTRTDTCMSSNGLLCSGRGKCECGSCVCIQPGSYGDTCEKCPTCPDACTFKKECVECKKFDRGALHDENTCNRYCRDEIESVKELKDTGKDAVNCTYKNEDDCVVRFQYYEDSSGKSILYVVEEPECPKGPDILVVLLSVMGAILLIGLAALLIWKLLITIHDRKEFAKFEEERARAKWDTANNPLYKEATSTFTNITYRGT
Integrin alpha-V/beta-3, sequence (P06756 31-889 limits assumed): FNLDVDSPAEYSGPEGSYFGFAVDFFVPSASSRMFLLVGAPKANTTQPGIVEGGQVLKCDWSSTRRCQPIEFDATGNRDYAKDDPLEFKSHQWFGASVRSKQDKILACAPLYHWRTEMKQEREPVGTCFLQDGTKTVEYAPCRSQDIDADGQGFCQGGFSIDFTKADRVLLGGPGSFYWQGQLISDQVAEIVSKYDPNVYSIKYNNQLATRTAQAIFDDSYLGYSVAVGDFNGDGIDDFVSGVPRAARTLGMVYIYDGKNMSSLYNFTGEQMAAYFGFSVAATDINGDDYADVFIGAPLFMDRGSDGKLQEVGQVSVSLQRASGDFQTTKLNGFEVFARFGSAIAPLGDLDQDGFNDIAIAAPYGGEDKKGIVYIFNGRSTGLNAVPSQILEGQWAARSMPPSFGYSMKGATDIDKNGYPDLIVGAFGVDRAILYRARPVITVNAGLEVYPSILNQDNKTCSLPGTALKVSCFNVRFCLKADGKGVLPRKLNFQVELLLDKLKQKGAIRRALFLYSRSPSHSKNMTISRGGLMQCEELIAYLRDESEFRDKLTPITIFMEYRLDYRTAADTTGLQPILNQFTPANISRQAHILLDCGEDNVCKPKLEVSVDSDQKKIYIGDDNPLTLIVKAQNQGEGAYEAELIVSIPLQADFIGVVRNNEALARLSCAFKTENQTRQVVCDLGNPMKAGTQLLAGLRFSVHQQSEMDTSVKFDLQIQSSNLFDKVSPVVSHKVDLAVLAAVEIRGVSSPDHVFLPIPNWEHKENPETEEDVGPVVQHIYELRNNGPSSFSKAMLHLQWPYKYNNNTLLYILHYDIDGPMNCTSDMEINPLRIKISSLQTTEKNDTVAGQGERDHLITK
Integrin alpha-V/beta-3, sequence (P06756 891-1048 limits assumed): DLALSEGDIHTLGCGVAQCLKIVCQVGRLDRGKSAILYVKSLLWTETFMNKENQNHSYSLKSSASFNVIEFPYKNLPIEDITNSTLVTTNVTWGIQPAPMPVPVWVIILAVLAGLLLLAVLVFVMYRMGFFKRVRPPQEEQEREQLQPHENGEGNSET

| SMILES | IC50 (Integrin alpha-V/beta-3) [nM] | inhibition [1] [%] | further results |
| --- | --- | --- | --- |
| CCOc1ccc([C@H](CC(=O)O)NC(=O)CN2CC[C@H](CCc3ccc4c(n3)NCCC4)C2=O)cc1F | 0.31 | 28 |  |
| O=C(O)C[C@H](NC(=O)CN1CC[C@H](CCc2ccc3c(n2)NCCC3)C1=O)c1ccc2nc(O)oc2c1 |  | 19 |  |
| O=C(O)C[C@H](NC(=O)CN1CC[C@H](CCc2ccc3c(n2)NCCC3)C1=O)c1ccccc1 | 4 | 8 |  |
| O=C(O)C[C@H](NC(=O)CN1CC[C@H](CCc2ccc3c(n2)NCCC3)C1=O)c1ccc2c(c1)OC(F)(F)O2 | 5.8 | 3 | logP [2]: 1.44 |
| COc1ccc([C@H](CC(=O)O)NC(=O)CN2CC[C@H](CCc3ccc4c(n3)NCCC4)C2=O)cc1F | 0.49 | 30 |  |
| O=C(O)CCNC(=O)CN1CC[C@H](CCc2ccc3c(n2)NCCC3)C1=O | 230 |  |  |
| O=C(O)C[C@H](NC(=O)CN1CC[C@H](CCc2ccc3c(n2)NCCC3)C1=O)c1cccc(F)c1 | 1.8 | 6 |  |
| O=C(O)C[C@H](NC(=O)CN1CC[C@H](CCc2ccc3c(n2)NCCC3)C1=O)c1cccnc1 | 0.35 |  | inhibition [3]: 50% |
| O=C(O)C[C@H](NC(=O)CN1CC[C@H](CCc2ccc3c(n2)NCCC3)C1=O)c1ccc2c(c1)OCC2 | 0.11 | 60 |  |
| O=C(O)C[C@H](NC(=O)CN1CC[C@H](CCc2ccc3c(n2)NCCC3)C1=O)c1ccc2c(c1)CCC2 | 29 |  |  |
| O=C(O)C[C@H](NC(=O)CN1CC[C@H](CCc2ccc3c(n2)NCCC3)C1=O)c1ccc2ncsc2c1 | 3.7 | 19 |  |
| O=C(O)C[C@H](NC(=O)CN1CC[C@H](CCc2ccc3c(n2)NCCC3)C1=O)c1ccc2[nH]c(=O)oc2c1 | 0.29 |  |  |
| O=C(O)C[C@H](NC(=O)CN1CC[C@H](CCc2ccc3c(n2)NCCC3)C1=O)c1ccc2ccsc2c1 | 2.2 | 29 |  |
| O=C(O)C[C@H](NC(=O)CN1CC[C@H](CCc2ccc3c(n2)NCCC3)C1=O)c1ccc2c(c1)OCO2 | 0.32 |  | inhibition [4]: 50%; clearance [5]: 25 mL/min/kg; bioavailability [6]: 30%; logP [2]: 0.26 |
| O=C(O)C[C@H](NC(=O)CN1CC[C@H](CCc2ccc3c(n2)NCCC3)C1=O)c1cnc2ccccc2c1 | 0.04 |  | inhibition [7]: 50% |
| O=C(O)C[C@H](NC(=O)CN1CC[C@H](CCc2ccc3c(n2)NCCC3)C1=O)c1ccc2c(c1)CCO2 | 1.1 | 20 |  |
| O=C(O)C[C@H](NC(=O)CN1CC[C@H](CCc2ccc3c(n2)NCCC3)C1=O)c1ccc(-c2ccccc2)c(F)c1 | 0.57 | 3 |  |
